The values that follow come from patent US20250242340A1, “SABRE CATALYSTS CONTAINING FLUORINATED CARBON CHAINS FOR DELIVERY OF METAL-FREE MRI CONTRAST AGENTS” (The United States of America, as represented by the …, priority 2022, published 2025).

The format of series [1] is physicochemical. The source says:
Parahydrogen was generated using a Gas-Delivery Manifold. Ultra-high-purity hydrogen gas (Airgas) was fed into a ParaHydrogen flow cryostat (Xeus technology LTD) and enriched to about 50% parahydrogen in the presence of a spin-exchange catalyst (Fe2O3) at liquid nitrogen temperature (77K). […] The entire pH2 line was pressurized to 100 psi.
The magnetic shield condition was as follows. […] The shield was degaussed using internal homebuilt coils driven by a Variac when necessary.
MR experiments were performed using a 1 T Magritek Spinsolve benchtop NMR spectrometer.
FIG. 6 depicts, in the top curve, a single-scan HP ^13C spectrum obtained for the hyperpolarized probe. […] Enhancement is ε˜9000 and polarization is about P(^13C)˜1%.
All experiments were performed with the solution containing fluorinated catalyst, co-ligand (phenyl trifluoromethyl sulfoxide) and [1-^13C]Pyruvate in 0.6 mL CD3OD. The ratio and concentration can be further adjusted to attain better enhancement and polarization. […] The experiments were performed at room temperature, ˜100 scc/m p-H2 flow rate and 96 PSI p-H2 overpressure. The parahydrogen used in this example came from a low-cost 50% p-H2 generator. Each experiment, the p-H2 bubbling was applied for ˜1 min, the sample was quickly transferred to the 1 T NMR spectrometer for detection and the sample was then returned to the mu-metal shield to continue p-H2 bubbling for the next experiment.

The nature of series [2]: Relaxation dynamics of hyperpolarized [1-13C]pyruvate in methanol (Example 7). Type of series: physicochemical. The source says:
(§1) In addition, the relaxation dynamics of the [1-^13C]pyruvate were also studied.
In addition, relaxation dynamics at earth field and 1.8 T are about the same as a non-fluorinated SABRE catalyst T1=28.9±1.6 s and 66.5±7 s, respectively.

Series [3] can be described thus: Isolation of hyperpolarized pyruvate by D2O precipitation of the catalyst and filtration (Example 8). Type of series: physicochemical. The conditions noted are these: 20% v/v D2O added, Oasis Prime HLB filter, 1.8 T NMR, procedure about 1.15 to 1.30 minutes. The method, then:
The parahydrogen flow rate was established at 90 scc/m and pressurized to 8 bars, the mixing field was 0.4 μT, and the temperature was 0° C.
After the hyperpolarization procedure was completed, the sample was rapidly removed from the 0.40 μT field, depressurized, and 20% in volume (125 μL) of D2O was added to the solution to precipitate the perfluorinated SABRE catalyst.

The nature of series [4]: Precipitation of HP pyruvate with ethyl acetate and reconstitution in D2O (Example 9). The series is classed as physicochemical. The conditions noted are these: after EtOAc precipitation and reconstitution in water (D2O); 7.5 mM fluorinated catalyst, 50 mM DMSO, 20-30 mM pyruvate, 1.8 T. The method, then:
Precipitation and redissolution of HP [1-^13C]pyruvate, which takes place in the same NMR tube where hyperpolarization, was performed (Schmidt et al., ACS Sensors, 7(11), 3430-3439 (2022)). The SABRE samples were prepared in CD3OD, using between 20 and 30 mM sodium [1-^13C]pyruvate, 7.5 mM fluorinated SABRE catalyst, and 50 mM dimethyl sulfoxide (DMSO), as described in Examples 6 and 7. 100 μL of this solution was transferred into 5 mm NMR tube and exposed to the SABRE-SHEATH hyperpolarization conditions with the same set-up and optimum conditions described in Examples 6 and 7. The solution was located inside a 3-layer mu-metal of 3″ I.D. and 9″ depth to shield external magnetic fields, combined with a custom-made solenoid to generate a static magnetic field B0 of 0.4 μT. The NMR tubes were pressurized (110 psi, i.e., approximately 8 bar total pressure) with p-H2 bubbling through the solution at a flow of 90 scc/m to activate the catalyst and to ^13C-hyperpolarize the sodium [1-^13C]pyruvate solution. Activation of the catalyst took place for 15 min at ambient temperature and magnetic field. For polarization build-up, the sample was placed in the static magnetic field (typically about 0.4 μT) and a water bath to regulate the reaction temperature at 0° C. After polarization, the NMR tube was rapidly transferred inside the NMR spectrometer at 1.8 T and kept at room temperature. […]

Series [5] is classed as physicochemical. The conditions noted are these: 40 mM sodium [1-13C]pyruvate, 6.6 mM catalyst of Example 16, 50 mM DMSO, CD3OD, 0.4 μT, 5 °C, 110 psi, 90 scc/m, 1.8 T. How it is done: (§2) The SABRE samples were prepared in CD3OD, using 40 mM sodium [1-^13C]pyruvate, 6.6 mM perfluorinated SABRE catalyst of Example 16, and 50 mM dimethyl sulfoxide (DMSO), as described in Examples 6 and 7. The SABRE samples were exposed to the SABRE-SHEATH hyperpolarization conditions with the same set-up and optimum conditions described in Examples 6 and 7. The NMR tubes were pressurized (110 psi, i.e., approximately 8 bar total pressure) with p-H2 bubbling through the solution at a flow of 90 scc/m to activate the catalyst and to ^13C-hyperpolarize the sodium [1-^13C]pyruvate solution. Activation of the catalyst took place for about 15 minutes at ambient temperature and magnetic field. For polarization build-up, the sample was placed in the magnetic field (typically about 0.4 μT) and a water bath at 5° C. to regulate the reaction temperature. The spectrum was acquired immediately following manual sample transfer to a 1.8 T benchtop NMR after 5 seconds, and the results are set forth in the top spectrum of FIG. 16.

Series [6] is classed as physicochemical. The conditions noted are these: 20 mM sodium [1-13C]pyruvate, 7.6 mM catalyst shown in Scheme 4, 50 mM DMSO, CD3OD, 0.4 μT, 5 °C, 110 psi, 90 scc/m, 1.8 T. How it is done: as §2, with “20” for “40”, “7.6” for “6.6”, “shown in Scheme 4,” for “of Example 16,”, “17.” for “16.”
Series [7] is classed as physicochemical. The conditions noted are these: 23 mM sodium [1-13C]pyruvate, 7.4 mM catalyst of Example 4, 46 mM DMSO, 0.2 mL NFBME + 0.2 mL MeOD, 90 scc/m, 110 PSI, 0.4 μT, 0 °C.
Series [8] can be described thus: Relaxation dynamics of hyperpolarized [1-13C]pyruvate in fluorous mixture (Example 25). The conditions noted are these: fluorous mixture NFBME/MeOD. Type of series: physicochemical.
From the text: as §1
In addition, relaxation dynamics at earth field and 1.8 T are about the same as a non-fluorinated SABRE catalyst T1=9.0±1.9 s and 16.0±1.4 s, respectively.

A short description of series [9]: Biphasic extraction of hyperpolarized pyruvate into D2O from NFBME/MeOD (Example 26). The series is classed as physicochemical. The conditions noted are these: after addition of 400 μL D2O to NFBME/MeOD sample (emulsion, bound and free pyruvate), catalyst of Example 4, 1.8 T, room temperature. How it is done: The hyperpolarization procedure of Example 6 was repeated using a mixture of nonafluorobutyl methyl ether (NFBME) and deuterated methanol instead of only deuterated methanol.
After the hyperpolarization procedure was completed, the sample was rapidly removed from the 0.40 μT field and transferred inside the NMR spectrometer at 1.8 T at room temperature. The NMR sample was depressurized and 400 μL of D2O was added to the solution in order to drive the hyperpolarized sodium [1-^13C]pyruvate into the aqueous phase.

Series [10] is described as follows: Re-use of the fluorous catalyst mixture for pyruvate hyperpolarization (Example 26). The series is classed as physicochemical. The conditions noted are these: re-used catalyst mixture from 4 days earlier, fresh 23 mM pyruvate and 47 mM DMSO in 0.2 mL CD3OD.
From the text: The fluorous mixture containing the perfluorinated SABRE catalyst in NFBME and MeOD was re-used for further sodium [1-^13C]pyruvate hyperpolarization.
Setting [11] is: Example 5 text: 8 mM fluorinated catalyst (Example 4), 16 mM PTFSO, 30 mM [1-13C]pyruvate, 0.6 mL CD3OD, room temperature, ~100 scc/m, 96 PSI, 50% p-H2, 1 T NMR.
The mark [12] stands for this setting: FIG. 6 legend: 30 mM sodium [1-13C]pyruvate, 42 mM PTFSO, 7.8 mM Ir-F-IMes, deuterated methanol, 55 s 50% p-H2 bubbling, BT=−0.7 μT, 1 T NMR.

Read-outs that look alike come from different tables or passages of the source.

As for `CC(=O)C(=O)O` [[1-^13C]pyruvate, Sodium [1-^13C]-pyruvate], the “13C signal enhancement ε” value in [1] (setting [11]) is given as about 9000; in series [1] (setting [12]) it was about 1250; in [4], about 9000 fold; in [5], about 16900 fold; in series [6], about 19000 fold; in series [7], about 38600 fold. The “13C signal enhancement ε” value in [9] was about 10800 fold; in series [10], about 3090 fold. For the same compound, the “polarization P(13C)” value is about 1% in series [1] (setting [11]) and about 0.1% in [1] (setting [12]). For the same compound, the T1 in [2] (catalyst of Example 4, 1.8 T) is 66.5 ± 7 s; in series [2] (catalyst of Example 4, Earth's field), 28.9 ± 1.6 s; in series [2] (catalyst of Example 4, relaxation at 0.4 μT) it was 16.1 ± 0.9 s; in [8] (1.8 T) it was 16.0 ± 1.4 s; in [8] (relaxation at 0.4 μT), 11.3 ± 1.3 s. Further, the “HP 13C signal after catalyst precipitation and filtration” value in [3] was “no HP ^13C signal was observed in any sample”. The P13C in series [4] is about 2.17%; in series [5], about 2.17%; in series [6], about 4.91%; in series [7], about 6.02%; in series [9], about 1.68%; in [10], about 0.48%.
